Converted amounts (≈) assume the structure as drawn. Like-named read-outs stand apart in the source and are kept apart here.
How the values were obtained:
Helicobacter pylori J99 = assay: Paper disc diffusion test, inhibition zone on agar plate; assay type: cell-based; settings: blank disc 8 mm; for zone of inhibition at 4 mg/disc / zone of inhibition at 1 mg/disc: Helicobacter pylori, J99, read-out: inhibition growth diameter; for inhibition zone diameter (FIG. 5): amount per disc not given
Protocol: Helicobacter pylori J99 (HP J99) used in the embodiments of the present invention was purchased from Bioresource Collection and Research Center (BCRC). The cultivating condition is indicated as follows: the bacteria were inoculated onto CDC medium (CDC anaerobe 5% blood agar, BD) and then incubated at 37° C. for 48 to 72 hours. After incubation, the bacteria were further incubated under micro-aerobic condition (5% O2, 10% CO2, 85% N2). For preparation of solutions with the foregoing compound A or compound B, ethanol was used as solvent to prepare various suitable concentrations.
The test on the inhibitory effect of Helicobacter pylori with the compound A or compound B of the present invention was carried out as follows: Helicobacter pylori was first grown on a CDC agar plate containing sheep blood for 48 to 72 hours. The bacterial colony was scraped with a cotton swab or an inoculation loop and subsequently transferred into a normal saline solution (0.9% NaCl). The optical density was then adjusted to 2 Mcfarland (1-4×10^8/ml bacteria) to obtain a solution with Helicobacter pylori. Subsequently, the foregoing compound A or compound B was weighed out to prepare a series of concentrations (from 10 mg/ml to 100 mg/ml) of test solutions (40 μl) and then 40 μl of the solution were transferred onto blank paper discs. After dryness, the discs were separately stuck to a proper site on the agar plate. After incubation under micro-aerobic condition at 37° C. for 48 hours, observation was made if any inhibition zone emerged on the agar plate.
The compounds of the present invention, which were actually tested, included phenoxyacetic acid, 3,4-dihydrobenzoic acid, 3,5-diamino-benzoic acid, 4-aminophenylacetic acid, 4-nitrobenzoic acid, 2,4-dinitrobenzoic acid, 4-(dimethylamino)benzoic acid, 2-methoxyphenylacetic acid, 3-amino-4-methylbenzoic acid, 4-methylthiobenzoic acid, 4-bromphenylacetic acid, 1,4-cyclohexanedicarboxylic acid, phthalic acid, trans-cinnamic acid, 4-ethylbenzoic acid, phenylacetic acid, benzoic acid, 3-phenylpropionic acid, 4-phenylbutyric acid, 3,4-dimethoxybenzyl alcohol (1) and 4-indophenylboronic acid (2). Ethanol (3) and water (4) were used as control.

H. pylori J99 [1] = assay: Minimal bactericidal concentration (MBC); assay type: cell-based; settings: Helicobacter pylori, kills 99.9% of bacteria of control group, 37° C., 1 to 2 hours
Protocol: Minimal bactericidal concentration (MBC) was determined by incubating test bacteria with different doses of test compounds for a period of time. Subsequently, the solutions underwent serial dilutions and the bacteria were grown on the agar plate by plate coating. At this moment, the concentration of test compound lost its inhibitory ability because of being diluted via serial dilutions and plate coating and it could be seen from the clear bacterial solution if the bacteria were dead. If bacteria growth was inhibited by the concentration of test compound, the bacteria might continue to grow after the abovementioned treatment and appeared in the form of colonies. In an embodiment of the present invention, H. pylori J99 were pre-cultivated for two days and colonies were scraped and suspended in saline solution. The bacterial concentration was then adjusted to 2 McFarland. After addition of suitable concentrations of benzoic acid and phenylacetic acid and incubation at 37° C. for 1 to 2 hours, the bacterial suspension underwent serial dilutions. 100 μl aliquots were taken from each suspension and applied on CDC plates. The plates were incubated under micro-aerobic condition at 37° C. for two days. The number of bacterial colonies was noted down and the concentration of test compound, that is able to kill 99.9% of bacteria of control group, was used as minimal bactericidal concentration.

H. pylori J99 [2] = assay: Minimum inhibition concentration with different pH values; assay type: cell-based, Helicobacter pylori; settings: for MIC90: Helicobacter pylori; for MIC: pH 6.0 to pH 7.0, no change observed
susceptible H. pylori = settings: cited from earlier work; for increase of MIC90: ratio of pH 5.5 to 7.0

Nc1cc(N)cc(C(=O)O)c1 [3,5-diaminobenzoic acid]
zone of inhibition at 4 mg/disc (Helicobacter pylori J99; 4 mg/disc): 12 mm

O=C(O)c1ccccc1 [Benzoic acid]
zone of inhibition at 4 mg/disc (Helicobacter pylori J99; 4 mg/disc): 24 mm | MBC (H. pylori J99 [1]): 500 µg/mL (≈ 4090 µM) | MIC90 (H. pylori J99 [2]; J99, pH 6): 0.06 µg/mL (≈ 0.491 µM) | MIC90 (H. pylori J99 [2]; J99, pH 6.5): 0.06 µg/mL (≈ 0.491 µM) | MIC90 (H. pylori J99 [2]; J99, pH 7): 0.06 µg/mL (≈ 0.491 µM) | MIC (H. pylori J99 [2]): 0.06

OB(O)c1ccc(I)cc1 [4-indophenylboronic acid]
inhibition growth diameter (Helicobacter pylori J99; 1 mg/disc): 35 mm | inhibition zone diameter (FIG. 5) (Helicobacter pylori J99): 35 mm

O=C([O-])CC(O)(CC(=O)[O-])C(=O)[O-].O=C([O-])CC(O)(CC(=O)[O-])C(=O)[O-].[Bi+3].[K+].[K+].[K+] [Bismuth subcitrate]
MIC90 (susceptible H. pylori; pH 6.0): 8 µg/mL | MIC90 (susceptible H. pylori; pH 7.5): 16 µg/mL

COc1ccc(CO)cc1OC [3,4-dimethoxybenzyl alcohol]
zone of inhibition at 4 mg/disc (Helicobacter pylori J99; 4 mg/disc): 20 mm | inhibition zone diameter (FIG. 5) (Helicobacter pylori J99): 20 mm

O=C(O)CCCc1ccccc1 [4-phenylbutyric acid]
zone of inhibition at 4 mg/disc (Helicobacter pylori J99; 4 mg/disc): 28 mm

CC[C@H]1OC(=O)[C@H](C)[C@@H](O[C@H]2C[C@@](C)(OC)[C@@H](O)[C@H](C)O2)[C@H](C)[C@@H](O[C@@H]2O[C@H](C)C[C@H](N(C)C)[C@H]2O)[C@](C)(O)C[C@@H](C)C(=O)[C@H](C)[C@@H](O)[C@]1(C)O [Erythromycin]
MIC90 (susceptible H. pylori; pH 5.5): 8 µg/mL (≈ 10.9 µM) | MIC90 (susceptible H. pylori; pH 6.0): 2 µg/mL (≈ 2.73 µM) | MIC90 (susceptible H. pylori; pH 7.5): 0.06 µg/mL (≈ 0.0818 µM)

O=C(O)/C=C/c1ccccc1 [Trans-cinnamic acid]
zone of inhibition at 1 mg/disc (Helicobacter pylori J99; 1 mg/disc): 25 mm

O=C(O)c1ccc([N+](=O)[O-])cc1 [4-nitrobenzoic acid]
zone of inhibition at 1 mg/disc (Helicobacter pylori J99; 1 mg/disc): 70 mm

O=C(O)c1cn(C2CC2)c2cc(N3CCNCC3)c(F)cc2c1=O [Ciprofloxacin]
MIC90 (susceptible H. pylori; pH 5.5): 2 µg/mL (≈ 6.04 µM) | MIC90 (susceptible H. pylori; pH 6.0): 0.5 µg/mL (≈ 1.51 µM) | MIC90 (susceptible H. pylori; pH 7.5): 0.12 µg/mL (≈ 0.362 µM)

CC1=C(C(=O)O)N2C(=O)[C@@H](NC(=O)[C@H](N)c3ccccc3)[C@H]2SC1 [Cefalexin]
MIC90 (susceptible H. pylori; pH 5.5): 32 µg/mL (≈ 92.1 µM) | MIC90 (susceptible H. pylori; pH 6.0): 16 µg/mL (≈ 46.1 µM) | MIC90 (susceptible H. pylori; pH 7.5): 2 µg/mL (≈ 5.76 µM)

Penicillin
MIC90 (susceptible H. pylori; pH 5.5): 0.5 µg/mL | MIC90 (susceptible H. pylori; pH 6.0): 0.5 µg/mL | MIC90 (susceptible H. pylori; pH 7.5): 0.03 µg/mL

O=C(O)COc1ccccc1 [Phenoxyacetic acid]
zone of inhibition at 4 mg/disc (Helicobacter pylori J99; 4 mg/disc): 17 mm

Cc1ncc([N+](=O)[O-])n1CCO [Metronidazole]
MIC90 (susceptible H. pylori; pH 5.5): 2 µg/mL (≈ 11.7 µM) | MIC90 (susceptible H. pylori; pH 6.0): 2 µg/mL (≈ 11.7 µM) | MIC90 (susceptible H. pylori; pH 7.5): 2 µg/mL (≈ 11.7 µM)

CC1(C)S[C@@H]2[C@H](NC(=O)[C@H](N)c3ccccc3)C(=O)N2[C@H]1C(=O)O [Ampicillin]
MIC90 (susceptible H. pylori; pH 5.5): 0.5 µg/mL (≈ 1.43 µM) | MIC90 (susceptible H. pylori; pH 6.0): 0.25 µg/mL (≈ 0.715 µM) | MIC90 (susceptible H. pylori; pH 7.5): 0.06 µg/mL (≈ 0.172 µM)

Cc1ccc(C(=O)O)cc1N [3-amino-4-methylbenzoic acid]
zone of inhibition at 4 mg/disc (Helicobacter pylori J99; 4 mg/disc): 14 mm

O=C(O)CCc1ccccc1 [3-phenylpropionic acid]
zone of inhibition at 1 mg/disc (Helicobacter pylori J99; 1 mg/disc): 14 mm | zone of inhibition at 4 mg/disc (Helicobacter pylori J99; 4 mg/disc): 34 mm

O=C(O)c1ccccc1C(=O)O [phthalic acid]
zone of inhibition at 4 mg/disc (Helicobacter pylori J99; 4 mg/disc): 12 mm

CC[C@H]1OC(=O)[C@H](C)[C@@H](O[C@H]2C[C@@](C)(OC)[C@@H](O)[C@H](C)O2)[C@H](C)[C@@H](O[C@@H]2O[C@H](C)C[C@H](N(C)C)[C@H]2O)[C@](C)(OC)C[C@@H](C)C(=O)[C@H](C)[C@@H](O)[C@]1(C)O [Clarithromycin]
MIC90 (susceptible H. pylori; pH 5.5): 0.25 µg/mL (≈ 0.334 µM) | MIC90 (susceptible H. pylori; pH 6.0): 0.06 µg/mL (≈ 0.0802 µM) | MIC90 (susceptible H. pylori; pH 7.5): 0.03 µg/mL (≈ 0.0401 µM) | increase of MIC90 (susceptible H. pylori): eight

Nc1ccc(CC(=O)O)cc1 [4-aminophenylacetic acid]
zone of inhibition at 4 mg/disc (Helicobacter pylori J99; 4 mg/disc): 12 mm

O=C(O)c1ccc([N+](=O)[O-])cc1[N+](=O)[O-] [2,4-dinitrobenzoic acid]
inhibition growth diameter (Helicobacter pylori J99; 4 mg/disc): 33 mm

COc1ccccc1CC(=O)O [2-methoxyphenylacetic acid]
zone of inhibition at 4 mg/disc (Helicobacter pylori J99; 4 mg/disc): 16 mm

O=C(O)Cc1ccccc1 [Phenylacetic acid]
zone of inhibition at 4 mg/disc (Helicobacter pylori J99; 4 mg/disc): 22 mm | MBC (H. pylori J99 [1]): 1000 µg/mL (≈ 7340 µM) | MIC90 (H. pylori J99 [2]; J99, pH 6.5, read-out: MIC90): 0.125 µg/mL (≈ 0.918 µM) | MIC90 (H. pylori J99 [2]; J99, pH 7): 0.125 µg/mL (≈ 0.918 µM) | MIC90 (H. pylori J99 [2]; J99, pH 6.0, read-out: MIC90): 0.125 µg/mL (≈ 0.918 µM) | MIC (H. pylori J99 [2]): 0.125

O=C(O)Cc1ccc(Br)cc1 [4-bromphenylacetic acid]
inhibition growth diameter (Helicobacter pylori J99; 1 mg/disc): 16 mm | inhibition growth diameter (Helicobacter pylori J99; 4 mg/disc): 35 mm

O=C(O)C1CCC(C(=O)O)CC1 (stereo not drawn) [1,4-cyclohexanedicarboxylic acid]
zone of inhibition at 4 mg/disc (Helicobacter pylori J99; 4 mg/disc): 12 mm

CCc1ccc(C(=O)O)cc1 [4-ethylbenzoic acid]
zone of inhibition at 1 mg/disc (Helicobacter pylori J99; 1 mg/disc): 30 mm

CC1(C)S[C@@H]2[C@H](NC(=O)[C@H](N)c3ccc(O)cc3)C(=O)N2[C@H]1C(=O)O [amoxicillin]
increase of MIC90 (susceptible H. pylori): eight

Cc1ccc(C(O)=S)cc1 [4-methylthiobenzoic acid]
zone of inhibition at 1 mg/disc (Helicobacter pylori J99; 1 mg/disc): 18 mm | zone of inhibition at 4 mg/disc (Helicobacter pylori J99; 4 mg/disc): 40 mm

CN(C)c1ccc(C(=O)O)cc1 [4-(dimethylamino)benzoic acid]
zone of inhibition at 4 mg/disc (Helicobacter pylori J99; 4 mg/disc): 26 mm

From patent publication US20150320776A1, “METHOD OF INHIBITING HELICOBACTER PYLORI” (priority 2014, published 2015)
